From patent EP0456257A1, “Silver halide color photographic material” (FUJI PHOTO FILM CO., LTD., priority 1990, dated 1991)

Experiment: Spectral absorption of yellow-colored coupler in methanol
Format: physicochemical
Experimental: The melting point of the compound was 269 to 272" C (decomposition). The structure of the compound was confirmed by H-NMR spectrum, mass spectrum and elementary analysis.
75 ml of methyl cellosolve and 26 ml of water were added to 10.1 g of Compound b (prepared as in Synthesis Example 1) and 10.7 g of sodium acetate. The diazonium solution was then added to the system with stirring under cooling with ice. After the dropwise addition was completed, the system was further stirred for 1 hour under ice-cooling and then for 2 hours at room temperature. The resulting crystal was filtered off. The crystal was then dispersed in 200 ml of methanol. A solution of 2.2 g of sodium hydroxide in 10 ml of water was added dropwise to the dispersion. The material was stirred for 3 hours. The system was neutralized with concentrated hydrochloric acid. The resulting crystal was washed with water and then with methanol, and then dried. The resulting crude crystal was purified with heat methanol in the same manner as in Synthesis Example 1 to obtain 14.8 g of Exemplary Coupler (YC-3). The melting point of the compound was 246 to 251 ° C (decomposition). The structure of the compound was confirmed by 'H-NMR spectrum, mass spectrum and elementary analysis.
13.0 g of Compound g prepared by the synthesis method as described in U.S. Patent 4,138,258 was dissolved in 40 ml of N,N-dimethylformamide. […]

CCCCCCCCC(CCCCCC)COCCCNC(=O)c1cc(OCCOc2ccc(N=Nc3c(C)c(C#N)c(=O)n(-c4ccccc4C(=O)O)c3O)cc2)c2ccccc2c1O (centres unmarked) [YC-30]
maximum absorption wavelength: 458.2 nm | molecular extinction coefficient: 42,800
